How the values were obtained:
HCV NS5B = biological target: T1, HCV NS5B (Hepatitis C virus genotype 1b, UniProt Q9WMX2); experiment: HCV NS5B RdRp enzyme assay (preincubation protocol); assay type: biochemical; conditions: Table 1, read-out: IC50*
T1 construct: The protein was expressed with an 18 amino acid C-terminal truncation to enhance the solubility; made in house; host or cells: E. coli BL21 (DE3), pET21a
Method in brief: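 C-terminally truncated (Δ18) genotype 1b NS5B from E. coli, 14 nM, added to compound, then polyA template (0.2 nM), 3H-UTP (0.29 μM) and oligo-dT12 primer precaptured on streptavidin SPA beads. 4 h at 30 °C, pH 7.5, 2% DMSO; SPA readout; IC50 from seven concentrations by logistic fit.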

HCV replicon = HCV replicon FRET assay; assay type: cell-based; conditions: Hepatitis C virus, Table 1; FRET assay; read-out: EC50*
Method in brief: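 HCV replicon cells, with or without Renilla luciferase reporter, incubated with titrated compounds at 37 °C; Alamar blue read for cytotoxicity. NS3 protease activity read from lysates with 20 μM EDANS/DABCYL FRET peptide (340/490 nm, kinetic), or by Dual-Glo luciferase. Background from highest protease-inhibitor wells; EC50 = 50% signal reduction.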

T1 sequence (Q9WMX2 2420-2992): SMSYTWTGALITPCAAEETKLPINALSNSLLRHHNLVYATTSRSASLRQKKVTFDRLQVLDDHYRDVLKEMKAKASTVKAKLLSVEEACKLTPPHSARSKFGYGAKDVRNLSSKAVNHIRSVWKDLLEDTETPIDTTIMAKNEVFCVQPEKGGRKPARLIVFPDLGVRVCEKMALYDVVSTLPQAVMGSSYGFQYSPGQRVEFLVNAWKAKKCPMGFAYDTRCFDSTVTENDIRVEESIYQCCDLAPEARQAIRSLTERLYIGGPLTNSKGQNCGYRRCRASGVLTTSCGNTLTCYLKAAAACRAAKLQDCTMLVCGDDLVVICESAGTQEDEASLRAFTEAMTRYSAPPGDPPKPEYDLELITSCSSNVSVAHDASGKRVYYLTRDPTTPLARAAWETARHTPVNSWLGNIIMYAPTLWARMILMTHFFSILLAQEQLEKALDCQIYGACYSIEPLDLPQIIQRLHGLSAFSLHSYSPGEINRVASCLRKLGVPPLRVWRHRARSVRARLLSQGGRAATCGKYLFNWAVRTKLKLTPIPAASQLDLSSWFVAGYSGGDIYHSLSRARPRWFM

SMILES	IC50 (HCV NS5B) [nM]	EC50 (HCV replicon) [nM]
COC(=O)c1ccc2c(C3CCCCC3)c3n(c2c1)CC(C(=O)N1CCCC(F)C1)=Cc1ccccc1-3 (centres unmarked)	10 to 1000	> 370
COC(=O)c1ccc2c(C3CCCCC3)c3n(c2c1)CC(C(=O)N1CCC(N2CCCC(F)C2)CC1)=Cc1ccccc1-3 (centres unmarked)	> 1000	> 370
COC(=O)c1ccc2c(C3CCCCC3)c3n(c2c1)CC(C(=O)N1CCC(N2CCCC(F)(F)C2)CC1)=Cc1ccccc1-3	> 1000	> 370
COC(=O)c1ccc2c(C3CCCCC3)c3n(c2c1)CC(C(=O)N1CC[C@H](F)C1)=Cc1ccccc1-3	> 1000	> 370
COC(=O)c1ccc2c(C3CCCCC3)c3n(c2c1)CC(C(=O)N1CCC(N2CC[C@@H](F)C2)CC1)=Cc1ccccc1-3	> 1000	> 370
COC(=O)c1ccc2c(C3CCCCC3)c3n(c2c1)CC(C(=O)N1CCC(N2CCC(F)CC2)CC1)=Cc1ccccc1-3	> 1000	> 370
COC(=O)c1ccc2c(C3CCCCC3)c3n(c2c1)CC(C(=O)N1CCCC(=O)N1)=Cc1ccccc1-3	> 1000	1000 to 10000
COC(=O)c1ccc2c(C3CCCCC3)c3n(c2c1)CC(C(=O)N1CCCC(C(N)=O)C1)=Cc1ccccc1-3 (centres unmarked)	> 1000	1000 to 10000
O=C(O)c1ccc2c(C3CCCCC3)c3n(c2c1)CC(C(=O)N1CCCC(F)C1)=Cc1ccccc1-3 (centres unmarked)	10 to 1000	1000 to 10000
O=C(O)c1ccc2c(C3CCCCC3)c3n(c2c1)CC(C(=O)N1CCC(N2CCCC(F)C2)CC1)=Cc1ccccc1-3 (centres unmarked)	10 to 1000	70 to 1000
O=C(O)c1ccc2c(C3CCCCC3)c3n(c2c1)CC(C(=O)N1CCC(N2CCCC(F)(F)C2)CC1)=Cc1ccccc1-3	10 to 1000	70 to 1000
O=C(O)c1ccc2c(C3CCCCC3)c3n(c2c1)CC(C(=O)N1CC[C@@H](F)C1)=Cc1ccccc1-3	10 to 1000	70 to 1000
O=C(O)c1ccc2c(C3CCCCC3)c3n(c2c1)CC(C(=O)N1CC[C@H](F)C1)=Cc1ccccc1-3	10 to 1000	70 to 1000
O=C(O)c1ccc2c(C3CCCCC3)c3n(c2c1)CC(C(=O)N1CCC(N2CC[C@@H](F)C2)CC1)=Cc1ccccc1-3	10 to 1000	70 to 1000
O=C(O)c1ccc2c(C3CCCCC3)c3n(c2c1)CC(C(=O)N1CCC(N2CC[C@H](F)C2)CC1)=Cc1ccccc1-3	10 to 1000	70 to 1000
O=C(O)c1ccc2c(C3CCCCC3)c3n(c2c1)CC(C(=O)N1CCC(N2CCC(F)CC2)CC1)=Cc1ccccc1-3	10 to 1000	70 to 1000
O=C1CCCN(C(=O)C2=Cc3ccccc3-c3c(C4CCCCC4)c4ccc(C(=O)O)cc4n3C2)N1	10 to 1000	1000 to 10000
NC(=O)C1CCCN(C(=O)C2Cc3ccccc3-c3c(C4CCCCC4)c4ccc(C(=O)O)cc4n3C2)C1 (centres unmarked)	10 to 1000	1000 to 10000
CN(C)S(=O)(=O)NC(=O)c1ccc2c(C3CCCCC3)c3n(c2c1)CC(C(=O)N1CCCC(F)C1)=Cc1ccccc1-3 (centres unmarked)	10 to 1000	70 to 1000
CN(C)S(=O)(=O)NC(=O)c1ccc2c(C3CCCCC3)c3n(c2c1)CC(C(=O)N1CCC(N2CCCC(F)C2)CC1)=Cc1ccccc1-3 (centres unmarked)	10 to 1000	70 to 1000
CN(C)S(=O)(=O)NC(=O)c1ccc2c(C3CCCCC3)c3n(c2c1)CC(C(=O)N1CCC(N2CCCC(F)(F)C2)CC1)=Cc1ccccc1-3	10 to 1000	70 to 1000
CN(C)S(=O)(=O)NC(=O)c1ccc2c(C3CCCCC3)c3n(c2c1)CC(C(=O)N1CC[C@@H](F)C1)=Cc1ccccc1-3	10 to 1000	70 to 1000
CN(C)S(=O)(=O)NC(=O)c1ccc2c(C3CCCCC3)c3n(c2c1)CC(C(=O)N1CC[C@H](F)C1)=Cc1ccccc1-3	10 to 1000	70 to 1000
CN(C)S(=O)(=O)NC(=O)c1ccc2c(C3CCCCC3)c3n(c2c1)CC(C(=O)N1CCC(N2CC[C@@H](F)C2)CC1)=Cc1ccccc1-3	10 to 1000	70 to 1000
CN(C)S(=O)(=O)NC(=O)c1ccc2c(C3CCCCC3)c3n(c2c1)CC(C(=O)N1CCC(N2CC[C@H](F)C2)CC1)=Cc1ccccc1-3	10 to 1000	70 to 1000
CN(C)S(=O)(=O)NC(=O)c1ccc2c(C3CCCCC3)c3n(c2c1)CC(C(=O)N1CCC(N2CCC(F)CC2)CC1)=Cc1ccccc1-3	10 to 1000	70 to 1000
CN(C)S(=O)(=O)NC(=O)c1ccc2c(C3CCCCC3)c3n(c2c1)CC(C(=O)N1CCCC(C(N)=O)C1)=Cc1ccccc1-3 (centres unmarked)	10 to 1000	70 to 1000
O=C(O)c1ccc2c(C3CCCCC3)c3n(c2c1)C/C(=N/O)Cc1ccccc1-3	10 to 1000	1000 to 10000

From patent US7473688B2, “Indolobenzazepine HCV NS5B inhibitors” (Bristol-Myers Squibb Company, priority 2005, dated 2009)
